Activity calls are given as the source filed them. The rule behind the calls is not given here.
What was measured:
[1] = target: T1, Tyrosinase (Agaricus bisporus, UniProt O42713); assay: Inhibition of mushroom tyrosinase using L-DOPA as substrate preincubated for 10 mins followed by substrate addition measured for 20 mins
T1 sequence (O42713 whole entry): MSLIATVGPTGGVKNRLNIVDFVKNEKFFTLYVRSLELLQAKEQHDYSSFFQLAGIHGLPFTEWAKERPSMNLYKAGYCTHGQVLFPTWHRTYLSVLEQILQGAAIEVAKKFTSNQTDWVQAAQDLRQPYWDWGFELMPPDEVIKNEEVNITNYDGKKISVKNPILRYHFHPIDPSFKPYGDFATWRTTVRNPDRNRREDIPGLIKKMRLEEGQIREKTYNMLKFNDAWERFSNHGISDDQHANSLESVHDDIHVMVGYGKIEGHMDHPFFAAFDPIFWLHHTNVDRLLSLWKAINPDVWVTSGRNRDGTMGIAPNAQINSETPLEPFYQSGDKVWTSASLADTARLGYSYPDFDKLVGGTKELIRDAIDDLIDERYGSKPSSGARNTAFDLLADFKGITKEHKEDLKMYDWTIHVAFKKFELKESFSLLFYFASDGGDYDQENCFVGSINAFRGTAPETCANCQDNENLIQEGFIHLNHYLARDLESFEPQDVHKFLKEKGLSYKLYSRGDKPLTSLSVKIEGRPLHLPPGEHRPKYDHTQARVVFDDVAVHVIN

[2] = Antioxidant activity assessed as DPPH radical scavenging activity at 100 ug/ml relative to control; assay type: functional
[3] = target: T2, Tyrosinase (Agaricus bisporus) (UniProt O42713); assay: Non-competitive inhibition of mushroom tyrosinase at 0.271 to 4.336 uM using L-DOPA as substrate preincubated for 10 mins followed by substrate addition measured up to 5 mins by Line-weaver Burk plot analysis
T2 sequence (whole entry): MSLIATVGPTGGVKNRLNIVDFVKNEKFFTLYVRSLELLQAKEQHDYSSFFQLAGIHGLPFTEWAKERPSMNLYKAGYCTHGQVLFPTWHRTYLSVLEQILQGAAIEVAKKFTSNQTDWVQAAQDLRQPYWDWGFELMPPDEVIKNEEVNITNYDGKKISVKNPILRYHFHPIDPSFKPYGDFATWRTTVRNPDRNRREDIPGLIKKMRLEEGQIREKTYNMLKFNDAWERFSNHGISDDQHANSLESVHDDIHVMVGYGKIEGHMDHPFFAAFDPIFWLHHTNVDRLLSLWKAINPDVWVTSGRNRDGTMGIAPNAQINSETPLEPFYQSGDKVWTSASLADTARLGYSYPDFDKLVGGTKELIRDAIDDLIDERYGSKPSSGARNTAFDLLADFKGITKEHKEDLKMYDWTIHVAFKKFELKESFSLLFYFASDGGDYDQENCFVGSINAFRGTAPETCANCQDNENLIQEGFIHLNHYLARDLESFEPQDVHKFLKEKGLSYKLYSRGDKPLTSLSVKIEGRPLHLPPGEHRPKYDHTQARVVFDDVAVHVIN

[4] = target: T1, Tyrosinase; assay: Non-competitive inhibition of mushroom tyrosinase using L-DOPA as substrate preincubated for 10 mins followed by substrate addition measured up to 5 mins by Dixon plot analysis
[5] = target: T2, Tyrosinase (Agaricus bisporus); assay: Non-competitive inhibition of mushroom tyrosinase assessed as 1/Vmax at 4.336 uM using L-DOPA as substrate preincubated for 10 mins followed by substrate addition measured up to 5 mins by Line-weaver Burk plot analysis
[6] = target: T2, Tyrosinase (Agaricus bisporus); assay: Non-competitive inhibition of mushroom tyrosinase assessed as 1/Vmax at 0.271 uM using L-DOPA as substrate preincubated for 10 mins followed by substrate addition measured up to 5 mins by Line-weaver Burk plot analysis
[7] = target: T2, Tyrosinase (Agaricus bisporus); assay: Potency index ratio of kojic acid IC50 to compound IC50 for inhibition of mushroom tyrosinase
[8] = target: T2, Tyrosinase (Agaricus bisporus); assay: Irreversible inhibition of mushroom tyrosinase at 0.271 to 4.336 uM using L-DOPA as substrate preincubated for 10 mins followed by substrate addition measured up to 5 mins by Line-weaver Burk plot analysis
[9] = target: T2, Tyrosinase (Agaricus bisporus); assay: Non-competitive inhibition of mushroom tyrosinase assessed as 1/Vmax at 1.084 uM using L-DOPA as substrate preincubated for 10 mins followed by substrate addition measured up to 5 mins by Line-weaver Burk plot analysis
[10] = target: T2, Tyrosinase (Agaricus bisporus); assay: Non-competitive inhibition of mushroom tyrosinase assessed as 1/Vmax at 2.18 uM using L-DOPA as substrate preincubated for 10 mins followed by substrate addition measured up to 5 mins by Line-weaver Burk plot analysis
[11] = target: T2, Tyrosinase (Agaricus bisporus); assay: Non-competitive inhibition of mushroom tyrosinase assessed as 1/Vmax at 0.542 uM using L-DOPA as substrate preincubated for 10 mins followed by substrate addition measured up to 5 mins by Line-weaver Burk plot analysis
[12] = compound: CCCCC(=O)NC(=S)Nc1ccc(OC)cc1; assay: Non-competitive inhibition of mushroom tyrosinase assessed as substrate Km at 1.084 uM using L-DOPA as substrate preincubated for 10 mins followed by substrate addition measured up to 5 mins by Line-weaver Burk plot analysis; conditions: Agaricus bisporus
[13] = compound: CCCCC(=O)NC(=S)Nc1ccc(OC)cc1; assay: Non-competitive inhibition of mushroom tyrosinase assessed as substrate Km at 4.336 uM using L-DOPA as substrate preincubated for 10 mins followed by substrate addition measured up to 5 mins by Line-weaver Burk plot analysis; conditions: Agaricus bisporus
[14] = compound: CCCCC(=O)NC(=S)Nc1ccc(OC)cc1; assay: Non-competitive inhibition of mushroom tyrosinase assessed as substrate Km at 2.18 uM using L-DOPA as substrate preincubated for 10 mins followed by substrate addition measured up to 5 mins by Line-weaver Burk plot analysis; conditions: Agaricus bisporus
[15] = compound: CCCCC(=O)NC(=S)Nc1ccc(OC)cc1; assay: Non-competitive inhibition of mushroom tyrosinase assessed as substrate Km at 0.271 uM using L-DOPA as substrate preincubated for 10 mins followed by substrate addition measured up to 5 mins by Line-weaver Burk plot analysis; conditions: Agaricus bisporus
[16] = compound: CCCCC(=O)NC(=S)Nc1ccc(OC)cc1; assay: Non-competitive inhibition of mushroom tyrosinase assessed as substrate Km at 0.542 uM using L-DOPA as substrate preincubated for 10 mins followed by substrate addition measured up to 5 mins by Line-weaver Burk plot analysis; conditions: Agaricus bisporus

Molecule | IC50 [1] [µM] | Activity [2] | also measured
CCCCC(=O)NC(=S)Nc1c(C)cc(C)cc1C | 19.7 | inactive | –
CCCCC(=O)NC(=S)Nc1cccc(Cl)c1Cl | 7.75 | inactive | –
CCCCC(=O)NC(=S)Nc1ccc(OC)cc1 | 1.57 | 80% | inhibition [3]: Active; Ki [4]: 1.1 µM; 1/Vmax [5]: 186000 deltaA/s; 1/Vmax [6]: 28600 deltaA/s; Ratio IC50 [7]: 15; inhibition [8]: Active; 1/Vmax [9]: 90500 deltaA/s; 1/Vmax [10]: 110000 deltaA/s; 1/Vmax [11]: 52400 deltaA/s
CCCCC(=O)NC(=S)Nc1c(Br)cc(F)cc1Br | 19.5 | inactive | –
CCCCC(=O)NC(=S)Nc1ccc(Br)cc1F | 6.46 | inactive | –
CCCCC(=O)NC(=S)Nc1ccc([N+](=O)[O-])cc1[N+](=O)[O-] | 10.1 | inactive | –
Tyrosinase (Agaricus bisporus), O42713 (protein) MSLIATVGPTGGVKNRLNIVDFVKNEKFFTLYVRSLELLQAKEQHDYSSFFQLAGIHGLPFTEWAKERPSMNLYKAGYCTHGQVLFPTWHRTYLSVLEQILQGAAIEVAKKFTSNQTDWVQAAQDLRQPYWDWGFELMPPDEVIKNEEVNITNYDGKKISVKNPILRYHFHPIDPSFKPYGDFATWRTTVRNPDRNRREDIPGLIKKMRLEEGQIREKTYNMLKFNDAWERFSNHGISDDQHANSLESVHDDIHVMVGYGKIEGHMDHPFFAAFDPIFWLHHTNVDRLLSLWKAINPDVWVTSGRNRDGTMGIAPNAQINSETPLEPFYQSGDKVWTSASLADTARLGYSYPDFDKLVGGTKELIRDAIDDLIDERYGSKPSSGARNTAFDLLADFKGITKEHKEDLKMYDWTIHVAFKKFELKESFSLLFYFASDGGDYDQENCFVGSINAFRGTAPETCANCQDNENLIQEGFIHLNHYLARDLESFEPQDVHKFLKEKGLSYKLYSRGDKPLTSLSVKIEGRPLHLPPGEHRPKYDHTQARVVFDDVAVHVIN | – | – | Km [12]: 389 µM; Km [13]: 389 µM; Km [14]: 389 µM; Km [15]: 389 µM; Km [16]: 389 µM

Now from value to molecule, other results behind:

IC50 [1] [µM] | Molecule | Activity [2] | also measured
16.6 | CCCCC(=O)NC(=S)Nc1cccc([N+](=O)[O-])c1 | inactive | –
3.37 | CCCCC(=O)NC(=S)Nc1ccc(Br)cc1 | inactive | –
2.32 | CCCCC(=O)NC(=S)Nc1ccc(Cl)cc1 | inactive | –
7.99 | CCCCC(=O)NC(=S)Nc1ccc([N+](=O)[O-])cc1 | inactive | –

Source: ChEMBL document CHEMBL4138131, “Design, synthesis, kinetic mechanism and molecular docking studies of novel 1-pentanoyl-3-arylthioureas as inhibitors of mushroom tyrosinase and free radical scavengers” (Eur J Med Chem, 2017)
